Reference: patent publication US9765118B2, “Pharmaceutical composition for cancer prevention and treatment containing peptide originated from C12orf59 protein as an active ingredient” (KOREA RESEARCH INSTITUTE OF BIOSCIENCE AND BIOTECHNOLOGY, priority 2010, dated 2017)

What was measured:
[1] = system: SW480 cells; assay: Transwell invasion assay with peptide-treated SW480 cells; format: cell-based, human; details: for invasion of colorectal cancer cells compared to the control: 50 μM, control DMSO 0.25%; for invasion of cells reduced by: FIGS. 18 and 19, concentration not given
Experimental: (§1) Particularly, the porous membrane of 24-well transwell plate (8 μm pore size; Costar, USA) was coated with 100 μl of matrigel (BD Biosciences, USA) diluted in serum free medium at the concentration of […], which stood at room temperature for 1 hour for fixing. The lower part of the transwell plate was coated with 100 μl of collagen type I (Sigma) at the concentration of […]. The said collagen type I was used as a chemoattractant. 1×10^4 cells resuspended in serum free medium were distributed in the upper chamber of the said 24-well transwell plate, followed by culture at 37° C. with 5% CO2 for 48 hours, during which the cells were induced to migrate from the upper chamber to the lower chamber. The non-migrated cells were eliminated from the surface of the upper chamber. […] The excessive crystal violet solution was washed off with distilled water. The selected area (×100) was photographed. The number of the cells migrated was counted from 5 different selected areas. Then, mean value and standard error were obtained.
SW480 colorectal cancer cells were treated with peptides originated from C12orf59, and effects of the peptids on invasion of the cells were analyzed.

[2] = system: SW480sub cells; assay: Transwell matrigel invasion assay with peptide-treated SW480sub cells; format: cell-based, human; details: for invasion reduced compared to vehicle control: peptide 50 μM; for colorectal cancer cell invasion reduced by / inhibitory effects on invasion: peptide 100 μg/ml, 48 hours
Experimental: SW480sub was subpopulation of SW480 having high in vitro invasion and in vivo metastasis ability. The effect of each peptide on colorectal cancer cell invasion was analyzed using the said SW480sub. SW480sub cells were mixed with each peptide, followed by pre-incubation for 30 minutes.
as §1

[3] = system: colorectal cancer cells; assay: Cellular survival rate of colorectal cancer cells by absorbance (Experimental Example 4); format: cell-based; details: as in Example <3-2>
Experimental: (§2) Particularly, 100 μl of poly-HEMA (Sigma) at the concentration of 12 mg/ml was loaded in 96-well plate, which stood in clean bench for 1 day, followed by drying. On the next day, the plate was coated with Poly-HEMA once again. Cells were distributed in the poly-HEMA coated plate by 100 μl/well (1×10^4 cells/well). At that time, serum-free medium was used. 6 days later, 10 μl of CCK-8 reagent (Dojindo cat. CK04-13) was added to each well, followed by reaction for 3 hours. Then, OD450 was measured.
In particular, a cellular survival rate was measured using absorbance in the same manner as in Example <3-2>.

[4] = system: C8161 (human melanoma) cell line; assay: Transwell invasion assay with C8161 cells in the presence of the peptide; format: cell-based; details: 24 h
Experimental: Specifically, C8161 (human melanoma) cell line was cultured in DMEM containing 10% FBS, penicillin-streptomycin, L-glutamine, sodium pyruvate and glucose. C8161 cells (1×10^4) in the presence of the peptide were plated in serum-free medium on 24-well Transwell inserts (8 μm pore size; Costar, USA) coated with 25 μg of […] (BD Biosciences, USA). The underside of the insert was coated with 100 μl of collagen type I (Sigma) at the concentration of 5 μg/ml. […] The number of cells that had invaded was counted in five representative fields per insert. Then, mean value and standard deviation were obtained.

[5] = system: SW480 cells; assay: Cell survivability under anchorage independent condition (polyHEMA, CCK-8, OD450) with peptides; format: cell-based, human; details: 6 days, serum-free
Experimental: 6 days later, cell survivability was measured by colorimetric technique under the anchorage independent condition.
as §2

Substance | invasion of colorectal cancer cells compared to the control [1] | invasion reduced compared to vehicle control [2] [%] | invasion of cells reduced by [1] [%] | survival of colorectal cancer cells [3] | also measured
PCCISS (B_Cen2) | superior inhibitory effects |  |  |  | 
CLTTDWVH (A/B common) | effects similar to those of A_C-term2 and B_C-term2 |  |  |  | 
SWRPQPCCIS (B_C-term2) | inhibited the invasion | 50 | 39 |  | 
SWRPQPCCISSCCLT (B_C-term1) |  |  |  | inhibitory effects on the survival of colorectal cancer cells in a concentration-dependent manner | 
NPEHCLTTDWVH (A_N-term) |  |  | 39 | inhibitory effects on the survival of colorectal cancer cells in a concentration-dependent manner | 
EENCGNPEHCLTTDWVH (A_intact) [17 amino acid peptide from the extracellular domain of C12orf59 isoform 1] |  | 40 |  |  | C8161 invasion reduced by ([4]; 30 μg/ml): 10%; C8161 invasion reduced by ([4]; 100 μg/ml): 45%; cell survivability reduced by [5]: 82%
EENCGNP (A_C-term2) | inhibited the invasion | 46 | 38 |  | colorectal cancer cell invasion reduced by / inhibitory effects on invasion [2]: about 99%
NPEHCLT (A_Cen) |  |  | 49 |  | 
PCCISSCCLTTDWVH (B_N-term) |  |  |  | inhibitory effects on the survival of colorectal cancer cells in a concentration-dependent manner | 
EENCGNPEHCLT (A_C-term1) |  | 48 | 48 | inhibitory effects on the survival of colorectal cancer cells in a concentration-dependent manner | colorectal cancer cell invasion reduced by / inhibitory effects on invasion [2]: about 92%
